These results are taken from patent US12269825B2, “Organic compounds” (INTRA-CELLULAR THERAPIES, INC., priority 2014, dated 2025).

SMILES strings stand for the structures.

Data set [1] has as its system ketone reductase. The experiment in a line: In-vitro metabolism using subcellular fractions and isolated hepatocytes: ketone reduction. The format is in vitro ADME. The settings on record: forms Compounds of Formula S and T, respectively. The source says:
(§1) The in-vitro metabolism of the Compound of the Formula Q and its metabolites is studied using subcellular fractions and isolated hepatocytes. […] These two reductions are both catalyzed in the reverse direction (oxidation) by CYP 3A4.

Data set [2] deals with T1, CYP 3A4 (Homo sapiens, UniProt P08684).
T1 construct: from tissue
T1 sequence (P08684 whole entry, species assumed): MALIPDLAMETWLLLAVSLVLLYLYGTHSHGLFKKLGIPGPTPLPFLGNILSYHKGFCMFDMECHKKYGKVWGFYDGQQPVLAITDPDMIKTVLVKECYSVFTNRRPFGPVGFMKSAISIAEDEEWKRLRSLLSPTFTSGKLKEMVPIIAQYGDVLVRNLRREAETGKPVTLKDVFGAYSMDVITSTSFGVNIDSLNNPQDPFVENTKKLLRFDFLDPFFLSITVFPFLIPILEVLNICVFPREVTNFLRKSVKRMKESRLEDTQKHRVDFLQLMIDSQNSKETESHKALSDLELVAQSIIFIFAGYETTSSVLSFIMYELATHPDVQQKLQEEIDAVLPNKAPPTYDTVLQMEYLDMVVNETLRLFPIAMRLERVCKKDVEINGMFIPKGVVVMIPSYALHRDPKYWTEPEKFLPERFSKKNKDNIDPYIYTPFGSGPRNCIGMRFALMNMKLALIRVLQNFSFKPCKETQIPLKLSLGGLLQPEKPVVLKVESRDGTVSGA
Nature of the data set: In-vitro metabolism using subcellular fractions and isolated hepatocytes: N-demethylation. The format is in vitro ADME.
From the text: as §1

Data set [3] is described as follows: In-vivo metabolism after oral administration. The settings on record: oral administration to rats, dogs and humans. The procedure:
(§2) In addition, the in-vivo metabolism of the Compound of Formula Q is studied after oral administration to rats, dogs and humans. Plasma levels after administration are determined in all three species for the Compounds of Formula Q through T. The results of the studies indicate that metabolism of the Compound of Formula Q is rapid, and that the N-demethyl compounds are highly polar and excreted rapidly. Results of human plasma studies on day 8 after 7 day dosing (120 mg, 4 doses/day) with the Compound of Formula Q are shown below: […]

Data set [4] can be described thus: Human plasma levels of Compounds Q through T after oral dosing with the Compound of Formula Q. The data set is classed as in vivo. The settings on record: day 8 after 7 day dosing (120 mg, 4 doses/day) with the Compound of Formula Q. The procedure: as §2

As to `CN1CCN2c3c(cccc31)[C@@H]1CN(CCCC(=O)c3ccc(F)cc3)CC[C@@H]12` [Compound Q, 4-((6bR,10aS)-3-methyl-2,3,6b,9,10,10a-hexahydro-1H-pyrido[3′,4′:4,5]pyrrolo[1,2,3-de]quinoxalin-8(7H)-yl)-1-(4-fluorophenyl)-1-butanone], the “metabolic route: ketone reduction” value in data set [1] is given as “undergo ketone reduction via the enzyme ketone reductase”. Moreover, the “metabolic route: N-demethylation” value in data set [2] is recorded as “N-demethylated to the Compound of Formula R via the P450 cytochrome oxidase isoform 3A4 (CYP 3A4)”. Also, in data set [3], the “rate of metabolism in vivo” value is listed as “rapid”. For the same molecule, in data set [4], the AUC came to 0.347 µg·h/mL, the Cmax was 0.078 µg/mL and the Tmax amounted to 2.5 h.
As for `O=C(CCCN1CC[C@H]2[C@@H](C1)c1cccc3c1N2CCN3)c1ccc(F)cc1` [Compound R], in data set [4], the area under the curve (AUC) came out at 0.17 µg·h/mL, the highest concentration (Cmax) turned out to be 0.037 µg/mL and the time to peak (Tmax) amounted to 2.5 h.
In the same order, the values of `CN1CCN2c3c(cccc31)[C@@H]1CN(CCCC(O)c3ccc(F)cc3)CC[C@@H]12` (stereo partly drawn) [Compound S] are 0.906 µg·h/mL, 0.079 µg/mL and 3.5 h.
Consider `OC(CCCN1CC[C@H]2[C@@H](C1)c1cccc3c1N2CCN3)c1ccc(F)cc1` (stereo partly drawn) [Compound T], for which, in data set [4], the AUC was found to be 0.517 µg·h/mL, the Cmax was 0.038 µg/mL and the time to peak (Tmax) stood at 6 h.
